Experimental data taken from patent US20260109707A1, “HETEROBIFUNCTIONAL COMPOUNDS AND METHODS OF TREATING DISEASE” (Halda Therapeutics OpCo. Inc., priority 2022, published 2026).
Where two headings read alike, the source gives them in different places.

How the values were obtained:
[1] = tested on: T-Rex 293 cell line SC3 cells lacking increased expression of androgen receptor protein; test: Cellular growth inhibition assay, T-Rex 293 SC3 cells without doxycycline (CellTiter-Glo, 72 hours); type: cell-based; details: T-Rex 293 cell line SC3 cells not exposed to doxycycline (lacking increased androgen receptor expression)
Outline: (§1)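 Doxycycline (10 ng/mL) was either included or omitted to toggle wild-type androgen receptor expression in SC3 cells, a T-Rex 293 clone, grown in stripped-serum, phenol red-free medium. After 72 hours with compound, viable cells were quantified by CellTiter-Glo 2.0.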

VCaP cells = test: Cellular growth inhibition assay for VCaP cells (CellTiter-Glo, 72 hours); type: cell-based, human
Outline: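 Luminescent viability signal after 72 h of compound exposure gave GI50 values by four-parameter nonlinear regression. Compounds were added in 0.5% DMSO to cells plated 24 h earlier at 5000/well in DMEM containing 10% FBS.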

[2] = tested on: T-Rex 293 cell line SC3 cells having increased expression of androgen receptor protein due to exposure to doxycycline; test: Cellular growth inhibition assay, T-Rex 293 SC3 cells with doxycycline (CellTiter-Glo, 72 hours); type: cell-based; details: T-Rex 293 SC3 cells with increased androgen receptor expression due to doxycycline (10 ng/mL)
Outline: as §1

Structure (SMILES)	GI50 ([1]; 72 h) [nM]	GI50 (VCaP cells; Homo sapiens, VCaP, 72 h) [nM]	GI50 ([2]; 72 h) [nM]	GI50 [1] [nM]	GI50 (VCaP cells) [nM]	GI50 [2] [nM]
Cc1sc2c(c1C)C(c1ccc(N3CCC(CN4CCN(c5ccc(C(=O)N[C@H]6CC[C@H](Oc7ccc(C#N)c(Cl)c7)CC6)nn5)CC4)CC3)cc1)=N[C@@H](C)c1nnc(C)n1-2 [I-499]	> 3000	< 500	< 500			
Cc1sc2c(c1C)C(c1ccc(OC3CC4(CCN(c5ccc(C(=O)N[C@H]6CC[C@H](Oc7ccc(C#N)c(Cl)c7)CC6)nn5)CC4)C3)cn1)=N[C@@H](C)c1nnc(C)n1-2 [I-484]			< 500	500 to 1500	< 500	
Cc1sc2c(c1C)C(c1ccc(CC3CC4(CCCN(c5ccc(C(=O)N[C@H]6CC[C@H](Oc7ccc(C#N)c(Cl)c7)CC6)nn5)C4)C3)cn1)N[C@@H](Cc1ncco1)c1nnc(C)n1-2 (stereo partly drawn) [I-642]	> 3000	> 3000	< 500			
Cc1sc2c(c1C)C(c1ccc(OC3CCC4(C3)CN(c3ccc(C(=O)N[C@H]5CC[C@H](Oc6ccc(C#N)c(Cl)c6)CC5)nn3)CCO4)cc1)=NC1(CC1)c1nnc(C)n1-2 (stereo partly drawn) [I-506]	> 3000		< 500		1500 to 3000	
Cc1sc2c(c1C)C(c1cccc(N3CCC4(CCCN(c5ccc(C(=O)N[C@H]6CC[C@H](Oc7ccc(C#N)c(Cl)c7)CC6)nn5)C4)CC3)c1)=N[C@@H](C)c1nnc(C)n1-2 [I-687]	> 3000	< 500	< 500			
Cc1sc2c(c1C)C(c1ccc(CC3CCC4(C3)CN(c3ccc(C(=O)N[C@H]5CC[C@H](Oc6ccc(C#N)c(Cl)c6)CC5)nn3)CCO4)cc1)=N[C@@H](C)c1nnc(C)n1-2 (stereo partly drawn) [I-581]				< 500	< 500	< 500
Cc1sc2c(c1C)C(c1ccccc1CC1CC3(CCCN(c4ccc(C(=O)N[C@H]5CC[C@H](Oc6ccc(C#N)c(Cl)c6)CC5)nn4)C3)C1)=N[C@@H](C)c1nnc(C)n1-2 (stereo partly drawn) [I-754]	> 3000	> 3000	> 3000			
CCNC(=O)C[C@@H]1N=C(c2cccc(OCCOCCOC3CCN(c4ccc(C(=O)N[C@H]5CC[C@H](Oc6ccc(C#N)c(Cl)c6)CC5)nn4)CC3)c2)c2c(sc(C)c2C)-n2c(C)nnc21 [I-23]	1500 to 3000	> 3000	< 500			
COCC[C@@H]1N=C(c2ccc(C#CC3CC4(C3)CN(c3ccc(C(=O)N[C@H]5CC[C@H](Oc6ccc(C#N)c(Cl)c6)CC5)nn3)C4)cc2)c2c(sc(C)c2C)-n2c(C)nnc21 [I-572]	< 500	< 500	< 500			
Cc1sc2c(c1C)C(c1ccccc1CC1CC3(CCCN(c4ccc(C(=O)N[C@H]5CC[C@H](Oc6ccc(C#N)c(Cl)c6)CC5)nn4)C3)C1)=N[C@@H](C)c1nnc(C)n1-2 (stereo partly drawn) [I-755]				> 3000	1500 to 3000	> 3000
Cc1sc2c(c1C)C(c1ccc(OCC3CCC4(C3)CN(c3ccc(C(=O)N[C@H]5CC[C@H](Oc6ccc(C#N)c(Cl)c6)CC5)nn3)CCO4)cc1)=N[C@@H](C)c1nnc(C)n1-2 (stereo partly drawn) [I-639]				> 3000	> 3000	< 500
Cc1sc2c(c1C)C(c1ccc(N3CCC4CN(c5ccc(C(=O)N[C@H]6CC[C@H](Oc7ccc(C#N)c(Cl)c7)CC6)nn5)CCC4C3)cc1)=N[C@@H](C)c1nnc(C)n1-2 (stereo partly drawn) [I-621]				> 3000	500 to 1500	< 500
Cc1sc2c(c1C)C(c1ccc(C3CCC4(CCCN(c5ccc(C(=O)N[C@H]6CC[C@H](Oc7ccc(C#N)c(Cl)c7)CC6)nn5)C4)CC3)cc1)=NC(C(F)(F)F)c1nnc(C)n1-2 (stereo partly drawn) [I-696]				> 3000	> 3000	> 3000
Cc1sc2c(c1C)C(c1ccc(N3CC4(CC(Cc5ccc(C(=O)N[C@H]6CC[C@H](Oc7ccc(C#N)c(Cl)c7)CC6)nn5)C4)C3)cc1)=NC(C(F)(F)F)c1nnc(C)n1-2 (stereo partly drawn) [I-724]	> 3000	< 500				> 3000
Cc1sc2c(c1C)C(c1ccc(N3C[C@@H]4[C@H](C3)[C@H]4Nc3ncc(C(=O)N[C@H]4CC[C@H](Oc5ccc(C#N)c(Cl)c5)CC4)cn3)cc1)=NC(Cc1ncco1)c1nnc(C)n1-2 (stereo partly drawn) [I-805]	< 500	< 500	< 500			
Cc1sc2c(c1C)C(c1ccc(N3CCCC(CN(C)c4ncc(C(=O)N[C@H]5CC[C@H](Oc6ccc(C#N)c(Cl)c6)CC5)cn4)C3)cc1)=NC(Cc1ncco1)c1nnc(C)n1-2 (stereo partly drawn) [I-797, N-((1r,4r)-4-(3-chloro-4-cyanophenoxy)cyclohexyl)-2-(methyl((1-(4-(2,3,9-trimethyl-6-(oxazol-2-ylmethyl)-6H-thieno[3,2-f][1,2,4]triazolo[4,3-a][1,4]diazepin-4-yl)phenyl)piperidin-3-yl)methyl)amino)pyrimidine-5-carboxamide]	< 500	< 500	< 500			
Cc1sc2c(c1C)C(c1ccc(CCC3CC4(CCCN(c5ccc(C(=O)N[C@H]6CC[C@H](Oc7ccc(C#N)c(Cl)c7)CC6)nn5)C4)C3)cn1)N[C@@H](Cc1ncco1)c1nnc(C)n1-2 (stereo partly drawn) [I-643]	> 3000	< 500	< 500			
